Experimental data: patent US6576648B2, “Compound with growth hormone releasing properties” (Novo Nordisk A/S, priority 1999, dated 2003)
Non-standard residues stand in square brackets, D forms with d. Residues, ends and D or L forms follow the SMILES beside them.

Legend:
[1] = system: Pancreatic enzyme mix: trypsin, chymotrypsin and elastase; experiment: Metabolic stability in pancreatic enzyme mix (ESMS, SIM of molecular ion); settings: chymotrypsin and elastase 0.025 mg/ml, 100 mM ammoniumbicarbonate pH 8.0, 37° C., 24 h, decrease in SIM signal
Experimental: (§1) The compound is dissolved at a concentration of 1 mg/ml in water. 25 ml of this solution is added to 175 ml of the respective enzyme-solution (resulting in an enzyme:substrate ratio (w/w) of approximately 1:5). The solution is left at 37° C. overnight. 10 ml of the various degradation solutions is analyzed against a corresponding zero-sample using flow injection electrospray mass spectrometry (ESMS) with selected ion monitoring of the molecular ion. If the signal has decreased more than 20% compared to the zero-sample, the remainder of the solution is analyzed by HPLC and mass spectrometry in order to identify the extent and site(s) of degradation precisely.
(§2) Enzymes (trypsin, chymotrypsin, elastase aminopeptidase M and carboxypeptidase Y and B) were all purchased from Boehringer Mannheim GmbH (Mannheim, Germany) […]
(§3) Quantification of the compound (before and after degradation) was done on the API III instrument using single ion monitoring of the molecular ion in question with flow injection of the analyte. […]
(§4) Identification of degradation products furthermore involved the use of plasma desorption mass spectrometry (PDMS) with sample application on nitrocellulose coated targets and standard instrumental settings. The accuracy of the hereby determined masses is generally better than 0.1%. […]

[2] = system: Carboxypeptidase mix: carboxypeptidase Y and B; experiment: Metabolic stability in carboxypeptidase mix (ESMS, SIM of molecular ion); settings: carboxypeptidase Y and B 0.025 mg/ml, 50 mM ammoniumacetate pH 4.5, 37° C., 24 h, decrease in SIM signal
Experimental: as §1, §2, §3, §4

[3] = Oral bioavailability, pharmacokinetics in fasted Beagle dogs; type: in vivo; settings: intravenous and oral administration in 5% glucose solution
Experimental: The pharmacokinetics of the compound can be investigated in fasted Beagle dogs.
Intravenous and oral administration of the test compound, in 5% glucose solution, was separated by a one weeks washout.
Blood samples were collected immediately before drug administration (time zero) and than 0.08, 0.25, 0.50, 0.75, 1.0, 1.5, 2.0, 3.0, 4.0, 5.0, and 6.0 hours after administration.
The plasma samples were stored frozen (<−18° C.) pending analysis.
An HPLC method with solid phase extraction and UV detection was used for the quantification of the compound in plasma.
The pharmacokinetic parameters for compounds were calculated by non-compartmental methods using the PC based pharmacokinetic software WinNonlin, version 1.1 (Scientific Consulting Inc., Apex, N.C., USA).

[4] = system: endogenous growth hormone release; experiment: Release of endogenous growth hormone in vivo

Row | Compound | Stability in Pan. Enzyme mix [1] | Stability in Carboxypeptidase mix [2] | oral availability [3] | ability to release endogenous growth hormone in vivo [4]
1 | C[C@H](NC(=O)[C@@H](Cc1c[nH]c2ccccc12)NC(=O)[C@@H](N)Cc1c[nH]cn1)C(=O)N[C@@H](Cc1c[nH]c2ccccc12)C(=O)N[C@H](Cc1ccccc1)C(=O)N[C@@H](CCCCN)C(N)=O [GHRP-6] (H-H[dW]AW[dF]K-NH2) | − (Unstable (more than 20% decrease in SIM signal after 24 h in degradation solution)) | − (Unstable (more than 20% decrease in SIM signal after 24 h in degradation solution)) | – | –
2 | CN(C)N(C)C(=O)[C@@]1(Cc2ccccc2)CCCN(C(=O)[C@@H](Cc2c[nH]c3ccccc23)NC(=O)C(C)(C)N)C1 [Example 1, 2-Amino-N-[(1R)-2-[(3R)-3-benzyl-3-(N,N′,N′-trimethylhydrazinocarbonyl)piperidin-1-yl]-1-(1H-indol-3-ylmethyl)-2-oxoethyl]-2-methylpropionamide] | – | – | about 50% | possess the ability to release endogenous growth hormone in vivo
3 | GHRP-2 | − (Unstable (more than 20% decrease in SIM signal after 24 h in degradation solution)) | − (Unstable (more than 20% decrease in SIM signal after 24 h in degradation solution)) | – | –
